Measurements as given in PMC4865820, “Branched Peptide, B2088, Disrupts the Supramolecular Organization of Lipopolysaccharides and Sensitizes the Gram-negative Bacteria” (Scientific Reports, 2016).
In brackets after ≈: the same amount, converted by molar mass.

Tests used:
[1] = tested on: P. aeruginosa DR4877/07; assay type: cell-based; conditions: for FICI of B2088-antibiotic combination: lowest FICI reported, two independent duplicates; for Fold decrease in the MIC of antibiotics at sub-lethal/sub-inhibitory concentrations of B2088: multidrug resistant P. aeruginosa 4877
Procedure, shortened: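 Checkerboard combinations of peptide and antibiotic, each 2-fold diluted up to 1× MIC in MHB, were tested against ~10^6 CFU/ml final inoculum. Plates were incubated 24 h at 37 °C, with growth read at OD600. FICI was the sum of the combination-to-alone MIC ratios for each agent, and the lowest FICI from duplicate experiments was reported.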

[2] = tested on: E. coli D21 and LPS outer core polysaccharide truncated mutant strains; assay: MIC ratio against LPS-truncated E. coli mutants; assay type: cell-based; conditions: oligosaccharide-truncated mutants vs wild type D21; increase seen against D21e9 lacking outer core polysaccharides
Source text: LPS is a complex glycosylated lipid molecule comprising of a hydrophobic lipid A and core oligosaccharides. The core oligosaccharides are structurally divided into an inner core (lipid A proximal) region and an outer core O-antigen region (Fig. 4a). To ascertain if the alterations in OM polysaccharides modify the barrier penetration and antimicrobial properties of the peptides, we determined the MIC of the peptides against 4 cell-wall defective mutants of E. coli (Fig. 4a). We report the MIC ratio (i.e., MICmut/MICwt) which is the ratio of MIC of peptides/antibiotics against oligosaccharides truncated mutant strains over MIC of wild type (D21) strains. For antibiotics that access intracellular targets through porin pathways or peptides that bind to the lipid A part of the LPS, the MIC ratio is independent of LPS truncation (Fig. 4b). However, antibiotics or peptides which interact with outer or inner core polysaccharides of the LPS are expected to show changes in the MIC ratio.
All the peptide congeners were purchased from M/s. Mimotopes Pty Ltd, Australia. The peptides were used as such and the homogeneity of peptides were confirmed by HPLC. Unless otherwise stated all the chemicals and the antibiotics tested were purchased from Sigma Aldrich (Singapore) Pte Ltd. The florescent probe, BODIPY TR cadaverine (BC) was purchased from Molecular Probes/ Invitrogen (CA, USA). E. coli LPS outer core polysaccharide truncated mutant strains were obtained from CGSG, The Coli Genetic Stock Centre, Yale University, […], USA. Relevant genotype of the strains are, D21 (rfa+); D21e19 (rfa-11) is a deficient mutant in carbohydrates close to the O-antigen part; D21e7 (rfa-1) is deficient in galactose as well as O-antigen; D21f1 (rfa-1, rfa21) lacks phosphate groups in the LPS has glucose and heptose intact; D21f2 (rfa-1, rfa-31) is deficient in heptose of the inner core[57][58].
(§1) MIC of each peptide was determined using the microdilution method in a 96 well microtitre plates (SPL Life Sciences Co., Ltd, Korea). Two-fold serial dilutions of each peptide in Mueller-Hinton Broth (MHB) was prepared from a 1 mg/ml stock solution of the peptide in the same broth, to obtain a final concentration in the range of 0.0976–50 μg/ml in each well. Bacterial suspensions (P. aeruginosa ATCC 27853, P. aeruginosa 4877, P. aeruginosa 23155, K. pneumoniae ATCC 10031 and K. pneumoniae 4299) were prepared by suspending the overnight cultured bacteria in saline and adjusting the inoculum to ~10^8 colony forming units (CFU) per ml. A further 150-fold dilution was then prepared in MHB to achieve a final cell density of 10^5–10^6 CFU/ml. In each well, 100 μl of inoculum was mixed with the equal volume of peptides at their 2× concentration. Positive and negative controls contained 200 μl of inoculum (without any peptide) and broth alone (no peptide/inoculum) respectively. Another negative control in which MHB containing 200 μl of peptide alone in its highest concentration tested (50 μg/ml) was also included to ensure that the optical density measured in the test wells was not due to turbidity of the peptides in solution. The 96 well polystyrene plates were then incubated at 37 °C for 24 h and the optical density at 600 nm (OD600) was measured every 30 min continuously using a TECAN microplate reader (TECAN Infinite 200, Austria). All the experiments were performed in two independent duplicates and the MIC was determined as the lowest peptide concentration in which no visible growth was observed.

[3] = tested on: P. aeruginosa DR4877/07; assay: microbe, parasite or virus in culture; conditions: Pseudomonas aeruginosa, DR4877/07, 24 h, read-out: MIC of antibiotics
Protocol: as §1, with “Austria).” for “Austria). All the experiments were performed in two independent duplicates and the MIC was determined as the lowest peptide concentration in which no visible growth was observed.”

[4] = tested on: K. pneumoniae 07955; assay: microbe, parasite or virus in culture; assay type: cell-based; conditions: Klebsiella pneumoniae, 07955; individual peptide/antibiotics; read-out: MIC against K. pneumoniae 07955
[5] = tested on: K. pneumoniae 31158; assay: microbe, parasite or virus in culture; assay type: cell-based; conditions: Klebsiella pneumoniae, 31158; individual peptide/antibiotics; read-out: MIC against K. pneumoniae 31158
[6] = tested on: K. pneumonia 4299; assay: microbe, parasite or virus in culture; assay type: cell-based, K. pneumoniae; conditions: Klebsiella pneumoniae, 4299; individual peptide/antibiotics; read-out: MIC against K. pneumoniae 4299
Procedure, shortened: (§2)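 Peptides two-fold diluted in Mueller-Hinton Broth (0.0976–50 μg/ml final) against 10^5–10^6 CFU/ml inoculum, 37 °C for 24 h with OD600 monitored every 30 min. MIC = lowest concentration with no visible growth; two independent duplicates.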

[7] = tested on: K. pneumonia 4299; assay: Checkerboard assay; assay type: cell-based, K. pneumoniae; conditions: for Fractional inhibitory concentration of B2088 used for FICI calculation: first number in parenthesis, in combination with the labelled antibiotic; for Fractional inhibitory concentration of antibiotic used for FICI calculation: second number in parenthesis, in combination with B2088
Protocol: (§3) The synergism between peptides with conventional antibiotics was evaluated using checkerboard assays. For a comparison polymyxin B (PMB) was also tested against each antibiotic. From their stock solutions, two-fold dilutions of each antibiotic and peptide to 1× MIC were prepared in MHB. 50 μl of each peptide concentration was added into the wells of a 96-well polystyrene plates (SPL Life Sciences Co. Ltd, Korea) in a horizontal orientation and the same volume of each antibiotic concentration were then added in a vertical orientation. Bacterial suspensions were prepared in MHB to yield final cell density of ~10^6 CFU/ml and 100 μl of bacterial suspension was mixed with each peptide-antibiotic combinations. This procedure was repeated for wells containing 200 μl of peptide alone and 200 μl of antibiotic alone in various concentrations. The positive and negative controls contained 200 μl of inoculum and MHB alone respectively. The plates were incubated at 37 °C for 24 hours and the optical density at 600 nm (OD600) was monitored as before. Fractional inhibitory concentration index (FICI) for all antibiotic- peptide combinations was calculated through the summation of (MIC of peptide in the combination/ MIC of peptide alone) and (MIC of antibiotics in combination/MIC of antibiotic alone). The experiments were performed in two independent duplicates and the combinations that gave the lowest FICI values was reported.

[8] = tested on: K. pneumonia 07955; assay: Checkerboard assay; assay type: cell-based, K. pneumoniae; conditions: for Fractional inhibitory concentration of B2088 used for FICI calculation: first number in parenthesis, in combination with the labelled antibiotic; for Fractional inhibitory concentration of antibiotic used for FICI calculation: second number in parenthesis, in combination with B2088
Protocol: as §3

[9] = tested on: K. pneumonia 31158; assay: Checkerboard assay; assay type: cell-based, K. pneumoniae; conditions: for Fractional inhibitory concentration of B2088 used for FICI calculation: first number in parenthesis, in combination with the labelled antibiotic; for Fractional inhibitory concentration of antibiotic used for FICI calculation: second number in parenthesis, in combination with B2088
Protocol: as §3

[10] = tested on: P. aeruginosa ATCC 9027; assay: Checkerboard assay; assay type: cell-based
Protocol: as §3

[11] = tested on: P. aeruginosa ATCC 9027; assay: MIC, microdilution; assay type: cell-based
[12] = tested on: P. aeruginosa ATCC 27853; assay: microbe, parasite or virus in culture; assay type: cell-based; conditions: Pseudomonas aeruginosa, ATCC27853; antibiotic alone; read-out: MIC of gentamicin against this strain
Procedure, shortened: as §2

[13] = MIC of B2088 6.25 μg/ml, MHB, ~10^6 CFU/ml, 37 °C, 24 h

Row | Structure (SMILES) | MIC of antibiotics in the presence of ¼× sub-MIC of B2088 [1, 13] [µg/mL] | MIC of antibiotics in the presence of ½× sub-MIC of B2088 [1, 13] [µg/mL] | FICI of B2088-antibiotic combination [1] | MIC ratio (MICmut/MICwt) [2] | MIC [3] [µg/mL] | MIC [4] [µg/mL] | Fold decrease in the MIC of antibiotics at sub-lethal/sub-inhibitory concentrations of B2088 [1] [fold] | MIC [5] [µg/mL] | MIC [6] [µg/mL] | Fractional Inhibitory Concentration Index of B2088 with the antibiotic [7] | Fractional inhibitory concentration of B2088 used for FICI calculation [7] | Fractional inhibitory concentration of antibiotic used for FICI calculation [7] | Fractional Inhibitory Concentration Index of B2088 with the antibiotic [8] | Fractional inhibitory concentration of B2088 used for FICI calculation [8] | Fractional inhibitory concentration of antibiotic used for FICI calculation [8] | Fractional Inhibitory Concentration Index of B2088 with the antibiotic [9] | Fractional inhibitory concentration of B2088 used for FICI calculation [9] | Fractional inhibitory concentration of antibiotic used for FICI calculation [9] | further results
1 | CC1(C)S[C@@H]2[C@H](NC(=O)C(C(=O)O)c3ccccc3)C(=O)N2[C@H]1C(=O)O (stereo partly drawn) [Carbenicillin, reference compound] | 800 | 200 | 0.63 | did not show any change | 1600 | – | – | – | – | – | – | – | – | – | – | – | – | – | –
2 | O=C(N[C@H](CO)[C@H](O)c1ccc([N+](=O)[O-])cc1)C(Cl)Cl [Chloramphenicol] | 50 | 25 | 0.5 | marked increase | 200 | 50 (≈ 155 µM) | 4 | 3.12 (≈ 9.67 µM) | 12.5 (≈ 38.7 µM) | 0.38 | 0.13 | 0.25 | 0.38 | 0.13 | 0.25 | 0.63 | 0.5 | 0.13 | FICI of polymyxin B-antibiotic combination [1]: 0.63; MIC of antibiotics in the presence of ⅛× sub-MIC of B2088 [1, 13]: 100 µg/mL
3 | CNC(C)C1CCC(N)C(OC2C(N)CC(N)C(OC3OCC(C)(O)C(NC)C3O)C2O)O1 (stereo not drawn) [Gentamicin] | – | – | – | marked increase | – | 100 (≈ 209 µM) | 4 | 0.05 (≈ 0.105 µM) | 0.39 (≈ 0.817 µM) | 0.37 | 0.125 | 0.25 | 0.75 | 0.25 | 0.5 | 0.31 | 0.25 | 0.06 | FICI of polymyxin B-antibiotic combination ([10]; Gentamycin): 1.0; MIC of antibiotics in the presence of ½ × sub-MIC of Polymyxin B ([10]; Gentamycin): 0.195 µg/mL; MIC of antibiotics in the presence of ¼× sub-MIC of B2088 ([10]; gentamicin): 0.098 µg/mL; MIC of antibiotics in the presence of ½× sub-MIC of B2088 ([10]; gentamicin): 0.024 µg/mL; MIC of antibiotics in the presence of ⅛× sub-MIC of B2088 ([10]; gentamicin): 0.195 µg/mL; FICI of B2088-antibiotic combination ([10]; gentamicin, lowest FICI reported): 0.5; MIC of antibiotics (Table S1) ([11]; Gentamycin alone, ATCC 9027): 0.39 µg/mL; MIC of antibiotics ([11]; gentamicin alone, ATCC 9027 used because DR4877/07 too resistant): 0.39 µg/mL; MIC [12]: 0.04 µg/mL
